Test results as given in PubChem BioAssay AID330 (DTP/NCI, 2004).
Several values for one entry are separate records, joined by “and”; a condition that tells them apart may be missing. Equal values may be shown once. Toxic doses and inconclusive results are not listed. The calls were made as follows: active = survival T/C of 150% or more; inactive = T/C below 125% in these data.

Test system: P388 leukemia ip, CD2F1 mice, survival T/C
Assay: NCI In Vivo Anticancer Drug Screen. Data for tumor model P388 Leukemia (intraperitoneal) in CD2F1 (CDF1) mice
Conditions: endpoint: median survival time, higher = longer survival
Outline: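 Mice carrying the transplanted tumor received test compound or vehicle. Survival was recorded in each group, and the value is the treated-group measurement divided by that of the vehicle-treated control group.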

[1] = dose: 12.5 mg/kg/injection, schedule: Q01DX009 (ip), vehicle: saline with Tween-80
[2] = dose: 25.0 mg/kg/injection, schedule: Q01DX009 (ip), vehicle: saline with Tween-80
[3] = dose: 50.0 mg/kg/injection, schedule: Q01DX009 (ip), vehicle: saline with Tween-80
[4] = dose: 12.5 mg/kg/injection, schedule: Q01DX009 (ip), vehicle: Klucel (hydroxypropylcellulose) (HPC)
[5] = dose: 50.0 mg/kg/injection, schedule: Q01DX005 (ip), vehicle: saline with Tween-80
[6] = dose: 100.0 mg/kg/injection, schedule: Q01DX005 (ip), vehicle: saline with Tween-80
[7] = dose: 200.0 mg/kg/injection, schedule: Q01DX005 (ip), vehicle: saline with Tween-80
[8] = dose: 100.0 mg/kg/injection, schedule: Q01DX009 (ip), vehicle: saline with Tween-80
[9] = dose: 200.0 mg/kg/injection, schedule: Q01DX009 (ip), vehicle: saline with Tween-80
[10] = dose: 100.0 mg/kg/injection, schedule: Q04DX003 (ip), vehicle: Klucel (hydroxypropylcellulose) (HPC)
[11] = dose: 200.0 mg/kg/injection, schedule: Q04DX003 (ip), vehicle: Klucel (hydroxypropylcellulose) (HPC)
[12] = dose: 400.0 mg/kg/injection, schedule: Q04DX003 (ip), vehicle: Klucel (hydroxypropylcellulose) (HPC)
[13] = dose: 100.0 mg/kg/injection, schedule: Q04DX003 (ip), vehicle: saline
[14] = dose: 200.0 mg/kg/injection, schedule: Q04DX003 (ip), vehicle: saline
[15] = dose: 400.0 mg/kg/injection, schedule: Q04DX003 (ip), vehicle: saline
[16] = dose: 50.0 mg/kg/injection, schedule: Q04DX003 (ip), vehicle: Klucel (hydroxypropylcellulose) (HPC)

Measured: T/C

O=C1C=Cc2ccc(O)cc2C1=O
inactive: dose: 1.25 mg/kg/injection, schedule: Q01DX009 (ip), vehicle: saline 100 % of control | dose: 1.25 mg/kg/injection, schedule: Q04DX003 (ip), vehicle: saline with Tween-80 90 % of control | dose: 2.5 mg/kg/injection, schedule: Q01DX009 (ip), vehicle: saline 110 % of control | dose: 2.5 mg/kg/injection, schedule: Q04DX003 (ip), vehicle: saline with Tween-80 109 % of control | dose: 5.0 mg/kg/injection, schedule: Q04DX003 (ip), vehicle: saline with Tween-80 109 % of control and 95 % of control

Clc1ccccc1C=NCC1CCC(CN=Cc2ccccc2Cl)CC1 (centres undefined)
inactive: dose: 6.25 mg/kg/injection, schedule: Q01DX009 (ip), vehicle: saline with Tween-80 99 % of control | [1] 101 % of control | [2] 100 % of control | [3] 116 % of control

CC1Cc2c([nH]c(=O)n(-c3ccccc3)c2=S)O1 (centres undefined)
inactive: dose: 25.0 mg/kg/injection, schedule: Q01DX001 (ip), vehicle: Klucel (hydroxypropylcellulose) (HPC) 96 % of control | dose: 50.0 mg/kg/injection, schedule: Q01DX001 (ip), vehicle: Klucel (hydroxypropylcellulose) (HPC) 112 % of control | dose: 100.0 mg/kg/injection, schedule: Q01DX001 (ip), vehicle: Klucel (hydroxypropylcellulose) (HPC) 100 % of control

Cc1ccc(NC(=O)N2c3ccccc3SC2c2ccco2)c(C)c1 (centres undefined)
inactive: [1] 92 % of control | [2] 103 % of control | [3] 86 % of control and 92 % of control

Nc1nnc(-c2ccccc2)s1
inactive: [4] 114 % of control | dose: 25.0 mg/kg/injection, schedule: Q01DX009 (ip), vehicle: Klucel (hydroxypropylcellulose) (HPC) 107 % of control | dose: 50.0 mg/kg/injection, schedule: Q01DX008 (ip), vehicle: Klucel (hydroxypropylcellulose) (HPC) 109 % of control | dose: 50.0 mg/kg/injection, schedule: Q01DX009 (ip), vehicle: Klucel (hydroxypropylcellulose) (HPC) 114 % of control | dose: 100.0 mg/kg/injection, schedule: Q01DX008 (ip), vehicle: Klucel (hydroxypropylcellulose) (HPC) 109 % of control | dose: 200.0 mg/kg/injection, schedule: Q01DX008 (ip), vehicle: Klucel (hydroxypropylcellulose) (HPC) 114 % of control

CC(C)OC(=O)CC1NS(=O)(=O)c2ccccc21 (centres undefined)
inactive: dose: 50.0 mg/kg/injection, schedule: Q01DX005 (ip), vehicle: suspension in saline 103 % of control | dose: 100.0 mg/kg/injection, schedule: Q01DX005 (ip), vehicle: suspension in saline 103 % of control | dose: 200.0 mg/kg/injection, schedule: Q01DX005 (ip), vehicle: suspension in saline 100 % of control

c1ccc2c(c1)NC(c1ccc3c(c1)Sc1cc(C4Nc5ccccc5N4)ccc1O3)N2
inactive: [5] 95 % of control | [6] 102 % of control | [7] 100 % of control

CC([NH-])C(=O)O.CC([NH-])C(=O)O.[Cu+2] (centres undefined)
inactive: [4] 99 % of control

CC(C)=CCC/C(C)=C/Cc1ccccc1
inactive: [3] 101 % of control and 109 % of control | [8] 103 % of control and 110 % of control | [9] 109 % of control

Cc1ccc(C2OC2(C(=O)C=[N+]=[N-])c2ccccc2)cc1 (centres undefined)
inactive: dose: 25.0 mg/kg/injection, schedule: Q01DX005 (ip), vehicle: saline with Tween-80 89 % of control | [5] 92 % of control | [6] 86 % of control | [7] 91 % of control

CNC(=O)OCCN(CCOC(=O)NC)C(=O)N1c2ccccc2Sc2ccccc21
inactive: [1] 94 % of control | [2] 98 % of control | [3] 91 % of control | [8] 100 % of control | [9] 100 % of control

CCn1c2ccccc2c2cc(N)c(N=Nc3ccc(-c4ccc(N)c(OC)c4)cc3OC)cc21
inactive: [10] 94 % of control | [11] 95 % of control | [12] 88 % of control

CC(=O)NCC[N+](C)(C)C
inactive: dose: 12.5 mg/kg/injection, schedule: Q01DX009 (ip), vehicle: saline 100 % of control | dose: 25.0 mg/kg/injection, schedule: Q01DX009 (ip), vehicle: saline 108 % of control | dose: 50.0 mg/kg/injection, schedule: Q01DX009 (ip), vehicle: saline 99 % of control

N#CCN=C(N)NN
inactive: [10] 105 % of control | [11] 94 % of control | [12] 108 % of control

Cn1c(=O)c2c(nc(/N=C/c3cccc([N+](=O)[O-])c3)n2C)n(C)c1=O
inactive: [13] 100 % of control | [14] 94 % of control | [15] 86 % of control

CC1(C)OC(C(CCl)OS(C)(=O)=O)C(C(CCl)OS(C)(=O)=O)O1 (centres undefined)
inactive: [16] 92 % of control | [10] 100 % of control | [11] 100 % of control

C=C1C(=O)O[C@@H]2/C=C(\C)CC/C=C(/C)CC[C@@H]12
inactive: dose: 12.5 mg/kg/injection, schedule: Q04DX003 (ip), vehicle: Klucel (hydroxypropylcellulose) (HPC) 100 % of control | dose: 25.0 mg/kg/injection, schedule: Q04DX003 (ip), vehicle: Klucel (hydroxypropylcellulose) (HPC) 107 % of control | [16] 100 % of control | [10] 113 % of control

COC(=O)/C=C/N(Cc1ccccc1)Cc1ccccc1
inactive: [8] 100 % of control | dose: 100.0 mg/kg/injection, schedule: Q04DX003 (ip), vehicle: saline with Tween-80 95 % of control | [9] 100 % of control | dose: 200.0 mg/kg/injection, schedule: Q04DX003 (ip), vehicle: saline with Tween-80 95 % of control | dose: 400.0 mg/kg/injection, schedule: Q01DX009 (ip), vehicle: saline with Tween-80 100 % of control | dose: 400.0 mg/kg/injection, schedule: Q04DX003 (ip), vehicle: saline with Tween-80 95 % of control

CN(C)c1ncnc2c1ncn2[C@H]1CCC[C@@H]1O
inactive: dose: 0.37 mg/kg/injection, schedule: Q01DX005 (ip), vehicle: Klucel (hydroxypropylcellulose) (HPC) 109 % of control | dose: 0.75 mg/kg/injection, schedule: Q01DX005 (ip), vehicle: Klucel (hydroxypropylcellulose) (HPC) 110 % of control | dose: 1.5 mg/kg/injection, schedule: Q01DX005 (ip), vehicle: Klucel (hydroxypropylcellulose) (HPC) 112 % of control and 116 % of control

COC(=O)C1c2cc3c(c(O)c2C(OC2OC(C)C(OC)C(C)(OC)C2OC)CC1(C)O)C(=O)c1c(O)cc2c(c1C3=O)OC1OC2(C)C(O)C(N(C)C=O)C1O (centres undefined)
inactive: dose: 1.56 mg/kg/injection, schedule: Q04DX003 (ip), vehicle: other 100 % of control | dose: 3.12 mg/kg/injection, schedule: Q04DX003 (ip), vehicle: other 96 % of control | dose: 6.25 mg/kg/injection, schedule: Q04DX003 (ip), vehicle: other 100 % of control | dose: 12.5 mg/kg/injection, schedule: Q04DX003 (ip), vehicle: other 110 % of control | dose: 25.0 mg/kg/injection, schedule: Q04DX003 (ip), vehicle: other 112 % of control

CC(=O)Nc1ccc(S(=O)(=O)N/N=C/c2cccc([N+](=O)[O-])c2O)cc1
inactive: dose: 60.0 mg/kg/injection, schedule: Q01DX005 (ip), vehicle: saline with Tween-80 104 % of control | dose: 120.0 mg/kg/injection, schedule: Q01DX005 (ip), vehicle: saline with Tween-80 104 % of control | dose: 240.0 mg/kg/injection, schedule: Q01DX005 (ip), vehicle: saline with Tween-80 103 % of control

CSc1ccc2c(=O)c(C(=O)O)c[nH]c2c1
inactive: [13] 108 % of control | [14] 99 % of control | [15] 107 % of control

Cc1nnc(NC(=O)c2cc(=O)c3cc(Cl)ccc3o2)s1
inactive: dose: 50.0 mg/kg/injection, schedule: Q01DX005 (ip), vehicle: Klucel (hydroxypropylcellulose) (HPC) 100 % of control | dose: 100.0 mg/kg/injection, schedule: Q01DX005 (ip), vehicle: Klucel (hydroxypropylcellulose) (HPC) 106 % of control | dose: 200.0 mg/kg/injection, schedule: Q01DX005 (ip), vehicle: Klucel (hydroxypropylcellulose) (HPC) 100 % of control

C/C1=C2N=C(/C=C3N=C(/C(C)=C4\[N-]C(C(CC(N)=O)C4(C)CCC(=O)NCC(C)OP(=O)(O)OC4C(CO)OC(n5cnc6cc(C)c(C)cc65)C4O)C4(C)N=C1C(CCC(N)=O)C4(C)CC(N)=O)C(CCC(N)=O)C\3(C)C)C(CCC(N)=O)C/2(C)CC(N)=O.[CH2-]CC.[Co+2] (centres undefined)
inactive: dose: 76.1 micrograms/kg/injection, schedule: Q#A X Z (ip), vehicle: water 88 % of control | dose: 7610.0 micrograms/kg/injection, schedule: Q#A X Z (ip), vehicle: water 99 % of control
